# Test results as given in patent US20120088800A1, “2-(SUBSTITUTED) (ARYLMETHYL, ARYLOXY and ARYLTHIO))-N-(SUBSTITUTED PYRIDIN-2-YL)-2-(SUBSTITUTED ARYL) COMPOUNDS AS SUBTYPE-SELECTIVE MODULATORS OF SPHINGOSINE-1-PHOSPHATE-3 (S1P3) RECEPTORS” (ALLERGAN, INC., priority 2009, published 2012).
# Where a name gives a salt, the structure may show the parent alone.
# How the values were obtained:
# Type in all cases: cell-based
# [1] = biological target: T1, S1P3 (Homo sapiens, UniProt Q99500); assay: FLIPR calcium assay, cells expressing S1P3 and a G-protein; conditions: for EC50: fluo-4 calcium signal compared to sphingosine 1-phosphate, antagonist mode; for FLIPR (% Antagonism) S1P3: value in parentheses below the EC50, antagonism of sphingosine 1-phosphate signal
# T1 construct: expressed in transfected cells
# T1 sequence (Q99500 whole entry, species assumed): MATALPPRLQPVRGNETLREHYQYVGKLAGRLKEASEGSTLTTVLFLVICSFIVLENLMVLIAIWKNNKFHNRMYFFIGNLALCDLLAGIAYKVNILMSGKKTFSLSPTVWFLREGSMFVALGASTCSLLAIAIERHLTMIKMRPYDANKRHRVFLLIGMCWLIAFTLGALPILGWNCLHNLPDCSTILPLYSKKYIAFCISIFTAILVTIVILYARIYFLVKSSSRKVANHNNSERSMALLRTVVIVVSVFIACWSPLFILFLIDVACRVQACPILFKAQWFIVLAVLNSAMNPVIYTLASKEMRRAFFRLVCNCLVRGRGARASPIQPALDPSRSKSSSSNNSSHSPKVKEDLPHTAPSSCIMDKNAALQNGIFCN
# Excerpt: (§1) Novel compounds having this general structure were synthesized and tested for sphingosine 1-phosphate receptor (S1P) activity using the FLIPR assay. Cells expressing the receptor of interest (S1P1, S1P2 or S1P3) and a G-protein (Gqi5 or G16) are loaded with fluo-4, a calcium sensitive dye. After removal of excess dye by washing, the cells are placed in the FLIPR TETRA instrument. Baseline fluorescence readings are taken prior to addition the compound to be tested. Agonists will trigger the receptor to interact with the G-protein, leading to an increase in intracellular calcium. The increase in intracellular calcium causes an increase in the fluorescence of the cells, due to the presence of fluo-4. This fluorescence increase is recorded by the FLIPR TETRA. After the calcium transient signal has decreased towards baseline, the standard agonist sphingosine 1-phosphate is added. If the test compound is an antagonist, an initial calcium signal will not be generated and the antagonist will prevent the generation of a calcium signal from sphingosine 1-phosphate. The level of fluorescence is compared to that of sphingosine 1-phosphate, and the EC50 or IC50 of the compound determined by curve fitting.
# [2] = biological target: T2, S1P1 (Homo sapiens, UniProt P21453); assay: FLIPR calcium assay, cells expressing S1P1 and a G-protein; conditions: fluo-4 calcium signal compared to sphingosine 1-phosphate
# T2 construct: expressed in transfected cells
# T2 sequence (P21453 whole entry, species assumed): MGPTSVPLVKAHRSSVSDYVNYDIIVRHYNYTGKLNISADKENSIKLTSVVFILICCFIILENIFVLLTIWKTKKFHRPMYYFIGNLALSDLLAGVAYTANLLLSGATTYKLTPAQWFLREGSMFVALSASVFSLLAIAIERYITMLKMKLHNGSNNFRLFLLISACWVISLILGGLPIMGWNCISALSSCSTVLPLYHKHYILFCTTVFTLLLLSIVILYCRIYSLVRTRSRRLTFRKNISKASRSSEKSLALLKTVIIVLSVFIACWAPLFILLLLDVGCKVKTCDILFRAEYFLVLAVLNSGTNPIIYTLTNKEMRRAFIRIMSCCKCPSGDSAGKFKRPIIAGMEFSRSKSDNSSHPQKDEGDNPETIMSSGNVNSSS
# Excerpt: as §1
# [3] = biological target: T3, S1P2 (Homo sapiens, UniProt O95136); assay: FLIPR calcium assay, cells expressing S1P2 and a G-protein; conditions: fluo-4 calcium signal compared to sphingosine 1-phosphate
# T3 construct: expressed in transfected cells
# T3 sequence (O95136 whole entry, species assumed): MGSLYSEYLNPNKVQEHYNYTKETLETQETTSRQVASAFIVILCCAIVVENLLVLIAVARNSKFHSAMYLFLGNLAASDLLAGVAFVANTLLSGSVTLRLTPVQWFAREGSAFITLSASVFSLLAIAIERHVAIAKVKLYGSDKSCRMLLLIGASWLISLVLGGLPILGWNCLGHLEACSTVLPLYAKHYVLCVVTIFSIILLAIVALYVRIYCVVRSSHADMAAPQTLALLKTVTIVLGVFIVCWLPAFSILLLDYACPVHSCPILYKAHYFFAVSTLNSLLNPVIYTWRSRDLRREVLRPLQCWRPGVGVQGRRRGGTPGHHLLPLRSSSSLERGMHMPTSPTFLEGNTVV
# Excerpt: as §1
Compound,EC50 [1] [nM],FLIPR (% Antagonism) S1P3 [1],EC50 [2] [nM],EC50 [3] [nM]
"Cl.O=C(Nc1ccc(Br)cn1)C(Oc1ccc(Br)cc1)c1ccc(Cl)cc1 (centres unmarked) [Example 5, 2-(4-bromophenoxy)-N-(5-bromopyridin-2-yl)-2-(4-chlorophenyl)acetamide hydrochloride]",90,(97) %,> 8300,> 8300
"Cl.O=C(Nc1ccc(Cl)cn1)C(Oc1ccc(Br)cc1)c1ccc(Cl)cc1 (centres unmarked) [Example 6, 2-(4-bromophenoxy)-2-(4-chlorophenyl)-N-(5-chloropyridin-2-yl)acetamide hydrochloride]",103,(97) %,> 8300,> 8300
"O=C(Nc1ccc(Cl)cn1)C(Sc1ccc(Cl)c(Cl)c1)c1ccccc1 (centres unmarked) [Example 19, N-(5-chloropyridin-2-yl)-2-(3,4-dichlorophenylthio)-2-phenylacetamide]",106,(97) %,> 8300,> 8300
"O=C(Nc1ccc(Cl)cn1)C(Sc1ccc(F)cc1)c1ccc(Cl)cc1 (centres unmarked) [Example 13, 2-(4-chlorophenyl)-N-(5-chloropyridin-2-yl)-2-(4-fluorophenylthio)acetamide hydrochloride]",198,(99) %,> 8300,> 8300
"Cc1ccc(SC(C(=O)Nc2ccc(Cl)cn2)c2ccc(Cl)cc2)cc1C (centres unmarked) [Example 15, 2-(4-chlorophenyl)-N-(5-chloropyridin-2-yl)-2-(3,4-dimethylphenylthio)acetamide hydrochloride]",240,(98) %,> 8300,> 8300
"Cl.O=C(Nc1ccc(F)cn1)C(Oc1ccc(Cl)cc1)c1ccc(Cl)cc1 (centres unmarked) [Example 7, 2-(4-chlorophenoxy)-2-(4-chlorophenyl)-N-(5-fluoropyridin-2-yl)acetamide hydrochloride]",316,(97) %,> 8300,> 8300
"COc1ccc(OC(C(=O)Nc2ccc(Cl)cn2)c2ccc(Cl)cc2)cc1.Cl (centres unmarked) [Example 3, 2-(4-chlorophenyl)-N-(5-chloropyridin-2-yl)-2-(4-methoxyphenoxy)acetamide hydrochloride]",166,(98) %,> 8300,> 8300
"Cc1cc(OC(C(=O)Nc2ccc(Cl)cn2)c2ccc(Cl)cc2)ccc1Cl.Cl (centres unmarked) [Example 1, 2-(4-chloro-3-methylphenoxy)-2-(4-chlorophenyl)-N-(5-chloropyridin-2-yl)acetamide hydrochloride]",128,(99) %,> 8300,> 8300
"COc1ccc(SC(C(=O)Nc2ccc(Cl)cn2)c2ccc(Cl)cc2)cc1 (centres unmarked) [Example 12, 2-(4-chlorophenyl)-N-(5-chloropyridin-2-yl)-2-(4-methoxyphenylthio)acetamide hydrochloride]",376,(99) %,> 8300,> 8300
"Cl.O=C(Nc1ccc(Br)cn1)C(Oc1ccc(Cl)cc1)c1ccc(Cl)cc1 (centres unmarked) [Example 8, N-(5-bromopyridin-2-yl)-2-(4-chlorophenoxy)-2-(4-chlorophenyl)acetamide hydrochloride]",15,(97) %,> 8300,> 8300
"Cc1ccc(SC(C(=O)Nc2ccc(Br)cn2)c2ccc(Cl)cc2)cc1 (centres unmarked) [Example 16, N-(5-bromopyridin-2-yl)-2-(4-chlorophenyl)-2-(p-tolylthio)acetamide hydrochloride]",256,(100) %,> 8300,> 8300
"Cl.O=C(Nc1ccc(Cl)cn1)C(Oc1ccc(Cl)cc1)c1ccc(Cl)cc1 (centres unmarked) [Example 9, 2-(4-chlorophenoxy)-2-(4-chlorophenyl)-N-(5-chloropyridin-2-yl)acetamide hydrochloride]",27,(97) %,> 8300,> 8300
"O=C(Nc1ccc(Br)cn1)C(Sc1ccc(Cl)c(Cl)c1)c1ccccc1 (centres unmarked) [Example 18, N-(5-bromopyridin-2-yl)-2-(3,4-dichlorophenylthio)-2-phenylacetamide]",133,(97) %,> 8300,> 8300
"O=C(Nc1ccc(Br)cn1)C(Sc1cccc(Cl)c1)c1ccccc1 (centres unmarked) [Example 20, N-(5-bromopyridin-2-yl)-2-(3-chlorophenylthio)-2-phenylacetamide hydrochloride]",166,(97) %,> 8300,> 8300
"O=C(Nc1ccc(Br)cn1)C(Sc1ccc(F)cc1)c1ccc(Cl)cc1 (centres unmarked) [Example 14, N-(5-bromopyridin-2-yl)-2-(4-chlorophenyl)-2-(4-fluorophenylthio)acetamide hydrochloride]",127,(99) %,> 8300,> 8300
"Cc1ccc(OC(C(=O)Nc2ccc(Br)cn2)c2ccc(Cl)cc2)cc1.Cl (centres unmarked) [Example 2, N-(5-bromopyridin-2-yl)-2-(4-chlorophenyl)-2-(p-tolyloxy)acetamide hydrochloride]",185,(100) %,> 8300,> 8300
"Cl.O=C(Nc1ccc(F)cn1)C(Oc1ccc(Br)cc1)c1ccc(Cl)cc1 (centres unmarked) [Example 4, 2-(4-bromophenoxy)-2-(4-chlorophenyl)-N-(5-fluoropyridin-2-yl)acetamide hydrochloride]",325,(97) %,> 8300,> 8300

# Now from value to molecule:
EC50 [1] [nM],FLIPR (% Antagonism) S1P3 [1],EC50 [2] [nM],EC50 [3] [nM],Compound
286,(99) %,> 8300,> 8300,"O=C(Nc1ccc(Br)cn1)C(Sc1ccc(Br)cc1)c1ccccc1 (centres unmarked) [Example 25, 2-(4-bromophenylthio)-N-(5-bromopyridin-2-yl)-2-phenylacetamide]"
1500,(52) %,> 8300,> 8300,"N#Cc1ccc(NC(=O)C(Cc2ccccc2)c2ccccc2)nc1 (centres unmarked) [Example 34, N-(5-cyanopyridin-2-yl)-2,3-diphenylpropanamide hydrochloride]"
104,(97) %,> 8300,> 8300,"O=C(Nc1ccc(Br)cn1)C(Sc1ccc(Cl)cc1)c1ccc(Cl)cc1 (centres unmarked) [Example 22, N-(5-bromopyridin-2-yl)-2-(4-chlorophenyl)-2-(4-chlorophenylthio)acetamide hydrochloride]"
166,(102) %,> 8300,> 8300,"O=C(Nc1ccc(Cl)cn1)C(Sc1ccc(Cl)cc1)c1ccc(F)cc1 (centres unmarked) [Example 26, 2-(4-chlorophenylthio)-N-(5-chloropyridin-2-yl)-2-(4-fluorophenyl)acetamide]"
162,(100) %,> 8300,> 8300,"O=C(Nc1ccc(Br)cn1)C(Cc1ccccc1)c1ccccc1 (centres unmarked) [Example 30, N-(5-bromopyridin-2-yl)-2,3-diphenylpropanamide hydrochloride]"
310,(101) %,> 8300,> 8300,"O=C(Nc1ccc(I)cn1)C(Sc1ccccc1)c1ccccc1 (centres unmarked) [Example 28, N-(5-iodopyridin-2-yl)-2-phenyl-2-(phenylthio)acetamide]"
173,(97) %,> 8300,> 8300,"O=C(Nc1ccc(Cl)cn1)C(Sc1ccc(Cl)cc1)c1ccc(Cl)cc1 (centres unmarked) [Example 23, 2-(4-chlorophenyl)-2-(4-chlorophenylthio)-N-(5-chloropyridin-2-yl)acetamide hydrochloride]"
725,(99) %,> 8300,> 8300,"Cc1ccc(NC(=O)C(Cc2ccccc2)c2ccccc2)nc1 (centres unmarked) [Example 32, N-(5-methylpyridin-2-yl)-2,3-diphenylpropanamide hydrochloride]"
230,(99) %,> 8300,> 8300,"O=C(Nc1ccc(Cl)cn1)C(Sc1ccc(Br)cc1)c1ccccc1 (centres unmarked) [Example 24, 2-(4-bromophenylthio)-N-(5-chloropyridin-2-yl)-2-phenylacetamide]"
1720,(94) %,> 8300,> 8300,"O=C(Nc1ccc(Br)cn1)C(c1ccc(Cl)cc1)c1ccc(Cl)cc1 [Example 33, N-(5-bromopyridin-2-yl)-2,2-bis(4-chlorophenyl)acetamide]"
201,(100) %,> 8300,> 8300,"Cc1nc(NC(=O)C(Cc2ccccc2)c2ccccc2)ccc1Br (centres unmarked) [Example 31, N-(5-bromo-6-methylpyridin-2-yl)-2,3-diphenylpropanamide hydrochloride]"
198,(101) %,> 8300,> 8300,"O=C(Nc1ccc(Cl)cn1)C(Cc1ccccc1)c1ccccc1 (centres unmarked) [Example 29, N-(5-chloropyridin-2-yl)-2,3-diphenylpropanamide hydrochloride]"
